{"source": "patent US20210352950A1", "about": "(priority 2019, published 2021)", "key": {"HCT116 cells": {"system": "HCT116 cells", "assay": "Muse cell viability assay (percentage of dead cells)", "details": "HCT116, CTR medium, vitamin C ≥0.3 mM (350 μM), 24 hours"}, "HO-1 [1]": {"system": "HO-1", "assay": "HO-1 protein expression in grafted HCT116 tumors", "assay_type": "in vivo, mouse", "details": "ad libitum or FMD cycles, vitamin C 4 g/kg i.p. twice a day"}, "ROS in HCT116 cells": {"system": "ROS in HCT116 cells", "assay": "CellROX reactive oxygen species measurement", "assay_type": "cell-based, human", "details": "HCT116, vitamin C 1 mM as single intervention, 30 minutes", "description": "Intracellular reactive-oxygen species (ROS) were measured using the CellROX oxidative stress reagents (Life Technologies, Cat. #: 10422). CellROX fluorogenic probe is designed to measure reactive-oxygen species (ROS) in live cells. […] For ROS measurement, cells were seeded in 10 cm petri dish (4×10^5 cells in CTR medium). After 24 hours cells were rinsed twice in 1×PBS and CTR or STS medium was added. 24 hours later, cells were trypsinized, resuspended in their respective media, and treated with 1 mM sodium ascorbate and 1 μM CellROX deep red reagent in the dark, for 30 minutes at 37° C. and 5% CO2. Then, fluorescence was immediately analyzed by flow cytometry (Attune NxT flow cytometer). Data were processed by Kaluza analysis software (Beckman coulter, version 2.0). Data were expressed as fold change of the median fluorescent intensity (MFI) of each treated sample versus the MFI of control sample."}, "[2]": {"system": "KRAS wild type cell lines (SW48, HT29, PC-3, COV362), normal colon cell line (CCD841CoN) and normal fibroblasts (BJ)", "assay": "Muse cell viability assay, KRAS wild type and normal cells", "assay_type": "cell-based", "details": "single agent or in combination with STS condition"}, "HO-1 [3]": {"system": "HO-1", "assay": "HO-1 protein expression in CT26.WT (western blot)", "assay_type": "cell-based, murine", "details": "vitamin C 350 μM 3 hours", "description": "(§1) Cells were washed twice in ice-cold PBS and lysates were prepared in RIPA lysis buffer (50 mM Tris HCl pH 7.4, 150 mM NaCl, 1% NP-40, 0.25% deoxycholic acid, 1 mM EDTA) supplemented with protease and phosphatase inhibitors (protease inhibitor cocktail set III EDTA-free, Calbiochem, Cat. #: S39134; PhosStop, Roche), Samples were sonicated (bioruptor plus, diogenode) and centrifuged at 16.1 g for 30 minutes at 4° C. Tumor tissues were collected and snap frozen in liquid nitrogen immediately after mice were sacrificed, and stored in -80° C. until use. […] Protein concentrations were determined by BCA assay (Thermo Fisher Scientific, Cat. #: 23225). Proteins were diluted in 1× Laemmli sample buffer, boiled at 95° C. for 5 minutes and 30 μg of total proteins were separated by using SDS-PAGE and analyzed by western blotting by standard procedures. […] Membranes were incubated overnight at 4° C. with gentle shaking with the following primary antibodies: […] ADI-SPA894), FTH (1:1000, Cell Signaling, Cat. #: 3998), AMPK (1:1000, Cell Signaling, Cat. #: 2532), phospho-[…] AMPK (1:1000, Cell Signaling, Cat. #: 2535), eIF2a (1:1000, Cell signaling, Cat. #: 5324), phospho […] eIF2a (1:1000, Cell signaling, Cat. #: 3597), AKT (1:1000, Cell Signaling, Cat. #: 9272), phospho-[…] […] Bands intensity was quantified with NIH Image J software (version 1.48v)."}, "[4]": {"system": "phospho-AMPK (threonine 172)", "assay": "AMPK phosphorylation (western blot)", "assay_type": "cell-based, human", "details": "HCT116, STS 24 hours + vitamin C 350 μM 3 hours", "description": "as §1"}, "[5]": {"system": "ferrous ion (Fe2+) in HCT116 cells", "assay": "Intracellular ferrous iron detection (Iron Assay Kit)", "assay_type": "cell-based, human", "details": "HCT116, STS 24 hours + vitamin C 350 μM 3 hours, compared to all other conditions", "description": "Intracellular ferrous ions were measured using Iron Assay Kit (Cat. #: ab83366). Ferrous ions (Fe^2+), but not ferric ions (Fe^3+) specifically reacts with […] (an iron chromogen) producing a stable colored complex, whose absorbance is measured at 593 nm. For Fe^2+ measurement experiment, cells were seeded in 10 cm petri dish (4×10^5 cells) in CTR medium. After 24 hours cells were rinsed twice in 1×PBS and CTR or STS medium was added. […] Next, cells were lysed in iron assay buffer and intracellular ferrous iron level was measured according to manufacturer protocol. Absorbance was recorded at the wavelength of 593 nm using a microplate reader (Infinite M200 TECAN). Data are expressed as fold change versus control sample."}, "[6]": {"details": "intraperitoneal injection; Chen et al., 2007; 2008; cited from earlier work"}, "[7]": {"system": "KRAS mutant cancer cells (HCT116, DLD-1, CT26.WT, H23, H727, PANC1)", "assay": "Muse cell viability assay, KRAS mutant panel", "assay_type": "cell-based, human and murine", "details": "CTR condition, vitamin C ≥0.3 mM, 24 hours"}}}
{"smiles": "O=C1O[C@H]([C@@H](O)CO)C(O)=C1O", "note": "[vitamin C, ascorbic acid]", "values": [{"measurement": "cell death", "setting": "HCT116 cells", "result": "able to induce cell death"}, {"measurement": "HO-1 protein expression level in grafted tumors", "setting": "HO-1 [1]", "result": "HO-1 up-regulation"}, {"measurement": "ROS levels", "setting": "ROS in HCT116 cells", "result": "increase ROS levels"}, {"measurement": "sensitivity to vitamin C treatment", "setting": "[2]", "result": "not sensitive"}, {"measurement": "HO-1 protein expression level", "setting": "HO-1 [3]", "result": "up-regulates HO-1 expression level"}, {"measurement": "AMPK phosphorylation level", "setting": "[4]", "result": "strongly up-regulated AMPK phosphorylation level"}, {"measurement": "ferrous ion (Fe2+) level", "setting": "[5]", "result": "significantly higher"}, {"measurement": "vitamin C level reached by parenteral (intraperitoneal) administration", "setting": "[6]", "result": 3, "unit": "mM"}, {"measurement": "sensitivity to vitamin C", "setting": "[7]", "result": "modest sensitivity"}]}
